{"source": "patent US20190160035A1", "about": "“METHOD OF TREATMENT” (QBIOTICS LIMITED, priority 2016, published 2019)", "key": {"MCT": {"tested_on": "MCT", "test": "Example 5: neoadjuvant prednisolone action (tumor change between screening and immediate pre-treatment evaluation)", "assay_type": "in vivo, Canis lupus familiaris (dog)", "text": "(§1) Each supervising veterinarian was given latitude to provide and record prophylactic and supportive medications as deemed appropriate for managing potential paraneoplastic events and tumor site necrosis following Compound 1 treatment. However, prednisolone and antihistamines were used as co-therapy. Prednisolone therapy commenced on Day −1 and continued for a further 7 days. H1 and H2 antihistamine therapy (chlorpheniramine and famotidine respectively) commenced on the morning of drug treatment and continued for a further 6 days (see Table 23).\n(§2) RECIST v.1.1 results are summarised in Table 28 which also includes a measure of neoadjuvant prednisolone action (potential tumor shrinkage) between screening and immediate pre-treatment tumor evaluation. Sixteen (16) dogs and eighteen (18) tumors were treated. Raw data for RECIST assessment was collected on Day 0 (immediately pre-treatment) and on Day 28 for fifteen (15) cases. […] With the remaining three (3) cases (C05-T-18, C05-V-01, and C05-V-02), the dogs were not available on Day 28 for RECIST assessment. For dog C05-T-18, the injection site was measured as CR on Days 21 and 37. […] For dog C05-V-01, the injection site was measured as PR on Days 21 and 37 (55% and 60% RECIST reduction respectively). […] For dog […], due to the progressive nature of disease, the animal was removed from study on Day 21."}, "[1]": {"tested_on": "MCT (cutaneous and subcutaneous)", "test": "Example 5: Compound 1 injection with oral prednisolone and antihistamine co-therapy, RECIST v.1.1 tumor response", "assay_type": "in vivo, Canis lupus familiaris (dog)", "settings": "1 mg/kg/day, 24 h pre-treatment and 7 days post-treatment", "text": "This study investigates the efficacy and safety of Compound 1 injection for MCT treatment in the presence of corticosteroids administered under defined clinical situations.\nDogs were selected for the study if they met the criteria in Table 1 (Example 1) but where the dog has at least one MCT.\nWherever possible, the tumor and a 2 cm border surrounding the tumor was shaved prior to treatment. To deliver the drug, the needle of the dosing syringe was inserted into the tumor at the injection point and moved in a radial manner in 2- and 3-dimensions with drug delivered to the tumor mass. Study dogs were clinically examined at 2-4 and 24 hours, and 7 (+2), 14 (+2) and 28 (+2) days post-treatment (and unscheduled visits at attending veterinarian discretion).\nas §1, §2"}, "[2]": {"settings": "following 24 h neoadjuvant prednisolone, dog C05-T-17"}, "[3]": {"settings": "per case (one dog tumor per line), negative = increase"}}, "note": "Several values for one entry are separate records, joined by “and”; a condition that tells them apart may be missing. Equal entries are not always repeated."}
{"smiles": "C[C@]12C=CC(=O)C=C1CC[C@@H]1[C@@H]2[C@@H](O)C[C@@]2(C)[C@H]1CC[C@]2(O)C(=O)CO", "note": "[prednisolone]", "values": [{"measurement": "RECIST reduction following 24 h prednisolone administration, Mean", "setting": "MCT; Mean of cases", "result": 5, "unit": "%"}, {"measurement": "Tumor vol (cm^3) reduction following 24 h prednisolone administration, Mean", "setting": "MCT; Mean of cases", "result": 27, "unit": "%"}, {"measurement": "RECIST reduction following 24 h prednisolone administration, Median", "setting": "MCT; Median of cases", "result": 6, "unit": "%"}, {"measurement": "Tumor vol (cm^3) reduction following 24 h prednisolone administration, Median", "setting": "MCT; Median of cases", "result": 31, "unit": "%"}, {"measurement": "Decrease in RECIST measure from screening to pre-treatment evaluation", "setting": "MCT; [2]", "result": 6, "unit": "%"}, {"measurement": "Decrease in tumor volume from screening to pre-treatment evaluation", "setting": "MCT; [2]", "result": 31, "unit": "%"}, {"measurement": "Tumor response following 24 h prednisolone administration (screening to immediate pre-treatment): RECIST reduction", "setting": "MCT; [3]", "result": "−5% and 8% and −23% and 39% and −12% and 0% and 16% and −8% and 28% and 12% and 20% and 6% and 34% and −26% and −20%"}, {"measurement": "Tumor response following 24 h prednisolone administration (screening to immediate pre-treatment): Tumor vol (cm^3) reduction", "setting": "MCT; [3]", "result": "23% and 62% and −36% and 71% and 61% and 13% and 59% and 35% and 45% and 27% and 31% and 76% and −118% and 14%"}, {"measurement": "Effect of oral prednisolone on drug (Compound 1) action", "setting": "[1]", "result": "limited or no suppressive effects"}]}
